The subject of data set [1] is A549 NSCLC cells or MiaPaCa-2 pancreatic cancer cells. The data set can be described thus: Sensitivity enhancement: PARP1 inhibitors combined with β-lapachone or DNQ, relative survival. It is filed as cell-based, human. The conditions noted are these: 10 = one log kill, 100 = two logs kill; for Sensitivity Enhancement (change in survival) with Deoxynyboquinone (DNQ): nontoxic DNQ (0.02 μM A549, 0.025 μM MiaPaca-2) + optimal dose (15 μM) of PARP1 inhibitor; for Sensitivity Enhancement (change in survival) with β-Lapachone: nontoxic β-lapachone (3 μM A549, 2 μM Mia Paca2) + optimal dose (15 μM) of PARP1 inhibitor.
Experimental: Mia PaCa-2 cells were treated for 2 hours with the inhibitors noted in FIG. 30 and then with DNQ+the inhibitors (all at 15 μM) for 2 hours.

A further data set concerns BRCA1−/− CAPAN-1 cells. The experiment in a line: AG014699 alone, synthetic lethality control. It is filed as cell-based.
The subject of data set [2] is A549 and Mia PaCa-2 cells. The data set can be described thus: AG014699 alone, lethality in BRCA1 wild-type cancer cells. In kind it is cell-based. The note with it: drug alone. From the text: FIGS. 33A-D. AG014699 enhances the NQO1-dependent lethality of ß-lapachone in A549 NSCLC cells.
AG014699 enhances the NQO1-dependent lethality of ß-lapachone in A549 NSCLC cells (FIG. 33).

For another data set, the system named is PARP1. The experiment in a line: PAR formation (PARP1 inhibition) in cells treated with NQO1 bioactivatable drug plus inhibitor. It is filed as cell-based. The note with it: inhibitors at 15 μM.
A short description of the next data set: in vivo. The conditions noted are these: NOD/SCID, mouse, iv.
Data set [3] has as its system NOD/SCID mice injected with 3LL-Luc cells. The experiment in a line: DNQ derivatives pilot study of maximum tolerated dose (MTD). The note with it: 3 NOD/SCID mice.
The test system of the next data set is breast cancer cells. The data set can be described thus: IB-DNQ (DNQ87) lethality in breast cancer cells. In kind it is cell-based. The note with it: NQO1-dependent. From the text: It is effective against breast cancer cells in an NQO1-dependent manner, as well as triple-negative breast cancer cells (A-F, for various cell types).
Unlike β-lapachone (ß-lap), efficacy of DNQ87 increases in an NQO1-dependent manner and the therapeutic window is larger (FIG. 14). […] (C) PARP1 hyperactivation caused by DNQ87 exposure measured by PAR-PARP1 formation, highlighted by μ-calpain-mediated p53 cleavage (C) and atypical cleavage of PARP1 to ^˜60 kDa proteolytic fragments during cell death (D). DNQ87 also causes DNA lesions (DNA double strand breaks) in a delayed manner, monitored by gamma-H2AX, phosphorylation of ATM at ser1981, and phosphorylation of DNA-PKcs at site Thr1892 (FIG. 16).

Data set [4] concerns Mia Paca2 pancreatic cancer cells. The data set can be described thus: Methoxyamine plus ß-lapachone lethality (colony forming assays). It is filed as cell-based. The note with it: nonlethal doses of methoxyamine. How it is done: FIGS. 9A-F. Methoxyamine (MeOX) enhances β-lap-induced NQO1-driven lethality. Mia Paca-2 cells were treated with indicated doses of β-lap+/−MeOX (12 mM), or β-lap alone for 2 hours. Endpoints examined: (A) Colony forming assays show synergy of MeOX+ß-lap; (B) MeOX treatment modifies AP sites induced by β-lap in Mia Paca-2 cells; (C) MeOX enhances β-lap-induced ATP loss; (D) MeOX blocks ATP recovery after sublethal β-lap doses; (E) β-lap+MeOX co-treatment enhances γH2AX foci formation. […] Dicoumarol (DIC, 50 μM, 2 h) blocked synergy.
(§1) B and C, Methoxyamine (MeOX) is an AP-site modifying chemical that is nontoxic to >100 mM as measured by relative survival and ATP loss. Optimal concentrations in combination with NQO1 bioactivatable drugs are between 6-12 mM. FIG. 21 illustrates Proof of Principle studies. A. Methoxyamine (MeOX) augments ß-lapachone ß-lap)-induced lethality in MiaPaca2 pancreatic cancer cells. B. Addition of MeOX modifies AP sites and therefore decreases signal of AP site formation in ß-lap+MeOX exposed cells. MeOX dose was 12 mM, ß-lap Dose was 6 μM. C,D. XRCC1 is a scaffolding protein that enables base excision repair (BER). Elimination of XRCC1 causes elevated AP sites and DNA single strand breaks, at which PARP1 can bind and become activated/hyperactivated. Knockdown of XRCC1 (C) enhances the lethality of ß-lapachone treatment.

The test system is the same in data set [5]. The data set can be described thus: Methoxyamine alone: relative survival and ATP loss. It is filed as cell-based. As to the method:
FIGS. 20A-C. Determination of lethal vs. sublethal doses of methoxyamine (MeOX or MX, as indicated); A, MeOX with β-lapachone; B, MeOX; C, MeOX.
as §1

The test system of data set [6] is MIA PaCa-2 tumor xenografts. The data set can be described thus: Antitumor efficacy in tumor xenografts. The note with it: β-lap-HPβ-CD at 20 or 30 mg/kg, iv. It is filed as in vivo, mice. As to the method: (A) Body weight changes of mice bearing orthotopic MIA PaCa-2 tumors. (B) Kaplan-Meier survival for pancreatic antitumor efficacy experiments described in (A). Log-rank analyses were performed comparing survival curves (***p<0.0001) for HPβ-CD vs. β-lap-HPβ-CD at 20 or 30 mg/kg, iv. Results are combined survival data from three similar experiments. (C) Bioluminescent images (BLI) of mice bearing spleen-implanted pancreas cancers before and after treatment with HPβ-CD or β-lap-HPβ-CD (Arq761) at 20 or 30 mg/kg, iv. (D) Quantification of pancreatic tumor burden. BLI (photons per second) were determined before and 12 days post-therapy with HPβ-CD or β-lap-HPβ-CD at 20 or 30 mg/kg, iv. Results are means, +SE (n=5). Student's t tests (***p<0.005) were performed comparing HPβ-CD vs. β-lap-HPβ-CD at 20 or 30 mg/kg, iv. V, Vehicle (HPβ-CD).
Altering BER or SSB repair can enhance NQO1 bioactivatable drug efficacy in a tumor-selective manner. siRNA-mediated knockdown of the Ogg1 glycosylase renders s-lap-treated pancreatic cancer cells resistant to ß-lapachone (FIG. 6), however NQO1 bioactivatable drugs cause SSBs and base lesions in a tumor-specific manner, thus they can be used to make DNA repair inhibitors tumor-selective (FIG. 7). PARP1 inhibitors synergize with NQO1 bioactivatable drugs for enhanced efficacy in NQO1+ cancer cells, such as pancreatic cancer cells (FIG. 8). […]

The test system of a further data set is Mia PaCa-2 cells. The data set can be described thus: ß-lapachone lethal vs. sublethal doses, 2 h treatment. In kind it is cell-based. The note with it: listed as ß-lapachone. As to the method:
MeOX, 12 mM; Dicoumarol, NQO1 inhibitor, 50 μM; ß-lapachone doses, indicated or 2 μM. For Mia Paca2 cells, 2-2.5 μM is sublethal, 6 μM is lethal. H2O2 dose was 500 μM, 2 h. All treatments were 2 h in duration. Cells were treated 2× with MeOX, as a 2 h pretreatment and then for 2 h in combination with ß-lap where applicable.
Addition of Methoxyamine (MeOX) prevents ATP recovery responses in ß-lap-treated Mia PaCa-2 cells at lethal and sublethal doses (FIG. 24). Lethal doses of ß-lapachone were 6 and 4 μM, whereas 3.0 and 2.5 μM are sublethal doses of ß-lapachone (ß-lap).

The test system of a further data set is A549 NSCLC cells. The data set can be described thus: ß-lapachone nontoxic vs. lethal dose, 2 h. It is filed as cell-based, human. How it is done:
FIGS. 46A-B. DNA damage via combinatorial treatment. (A) A549 NSCLC cells were pre-treated with or without Rucaparib (AG014699) and then exposed to a nontoxic dose of ß-lapachone (3 μM) at the concentrations indicated with or without the same PARP1 inhibitor. Cells were also exposed to a lethal dose of ß-lapachone (8 μM). Cells were then analyzed by neutral comet assays and DNA damage graphed in (B).
A459 NSCLC cells were pretreated with 15 μM AG014699 for 2 hours, then exposed to the same concentration of AG014699+various concentrations of DNQ87 for 2 hours as indicated (FIG. 45). Cells were then washed free of drug and relative survival performed as previously described (Huang et al., Cancer Res., 2012). Cells treated in this manner by nontoxic doses of ß-lap show enhanced DNA lesion formation, equivalent to DNA lesions formed by a lethal dose of ß-lap (8 μM, 2 hours) (FIG. 46).

For another data set, the target named is NQO1 (Homo sapiens, UniProt P15559). The conditions noted are these: in two minutes; cited from earlier work.
Sequence of NQO1 (P15559 whole entry): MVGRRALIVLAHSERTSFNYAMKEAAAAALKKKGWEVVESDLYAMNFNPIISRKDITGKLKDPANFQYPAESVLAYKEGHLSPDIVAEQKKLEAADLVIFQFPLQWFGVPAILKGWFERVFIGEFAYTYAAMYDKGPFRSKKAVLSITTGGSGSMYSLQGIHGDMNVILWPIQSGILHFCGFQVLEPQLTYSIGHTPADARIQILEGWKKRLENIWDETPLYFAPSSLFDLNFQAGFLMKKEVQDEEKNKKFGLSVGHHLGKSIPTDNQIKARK

Molecules are shown by their SMILES. Where “and” joins values, the source holds several entries; their conditions need not be identical. Equal values may be shown once.

Turning to `C[C@]1(c2nc3c(C(N)=O)cccc3[nH]2)CCCN1` [ABT-888, Veliparib], in [1], the “Sensitivity Enhancement (change in survival) with Deoxynyboquinone (DNQ)” value worked out at 15 and the “Sensitivity Enhancement (change in survival) with β-Lapachone” value turned out to be 10.

With `CN(C)Cc1ccc(-c2nc3cccc4c3n2CCNC4=O)cc1` [AG14361], in [1], the “Sensitivity Enhancement (change in survival) with Deoxynyboquinone (DNQ)” value is on record as 10 and the “Sensitivity Enhancement (change in survival) with β-Lapachone” value was 5.

On to `CNCc1ccc(-c2[nH]c3cc(F)cc4c3c2CCNC4=O)cc1` [AG-014699, Rucaparib], for which the “lethality of drug alone” value with BRCA1−/− CAPAN-1 cells is given as “synthetic lethality”. Further, in data set [1], the “Sensitivity Enhancement (change in survival) with Deoxynyboquinone (DNQ)” value turned out to be 100 and the “Sensitivity Enhancement (change in survival) with β-Lapachone” value is 10. Moreover, in data set [2], the “response of BRCA1 wild-type cells to the PARP1 inhibitor alone” value is reported as “completely resistant”.

Regarding `O=C(c1cc(Cc2n[nH]c(=O)c3ccccc23)ccc1F)N1CCN(C(=O)C2CC2)CC1` [AZD2281, Olaparib], in data set [1], the “Sensitivity Enhancement (change in survival) with Deoxynyboquinone (DNQ)” value amounted to 20 and the “Sensitivity Enhancement (change in survival) with β-Lapachone” value turned out to be 10.

Regarding `NC(=O)c1ccc(I)c([N+](=O)[O-])c1` [BSI-201, Iniparib], in data set [1], the “Sensitivity Enhancement (change in survival) with Deoxynyboquinone (DNQ)” value came to 4 and the “Sensitivity Enhancement (change in survival) with β-Lapachone” value worked out at 3. Besides, in the data set on PARP1, the “inhibition of PAR formation” value is reported as “not an efficacious PARP1 inhibitor”.

As to `Cc1cc(=O)[nH]c2c1C(=O)c1c(C)cc(=O)n(CCC(C)(C)C)c1C2=O` [Compound 9-251], in “in vivo”, the MTD at 5 injections, 1x every other day was found to be 20 mg/kg. In addition, the “Dead mice (5 IV.)” value in data set [3] (20 mg/kg) turned out to be 0.

Regarding `CCCn1c2c(c(C)cc1=O)C(=O)c1c(C)cc(=O)[nH]c1C2=O` [Compound 10-41], the MTD at 5 injections, 1x every other day in the data set “in vivo” was found to be 7 mg/kg. For the same molecule, in data set [3] (15 mg/kg), the “Dead mice (5 IV.)” value is given as 3.

For `Cc1cc(=O)[nH]c2c1C(=O)c1c(C)cc(=O)n(CC(C)C)c1C2=O` [Compound 87], in the data set “in vivo”, the MTD at 5 injections, 1x every other day is ~16 mg/kg. Besides, the “Dead mice (5 IV.)” value in data set [3] (14 mg/kg) was found to be 0. For the same molecule, in the data set with breast cancer cells, the “effective doses relative to ß-lapachone and DNQ” value was “works at much lower doses versus ß-lapachone and at doses equivalent to the parental DNQ compound”.

`CCc1cc(=O)n(C)c2c1C(=O)c1c(C)cc(=O)[nH]c1C2=O` [Compound 107]: in “in vivo”, the MTD at 5 injections, 1x every other day turned out to be 8 mg/kg. Besides, in [3] (10 mg/kg), the “Dead mice (5 IV.)” value came out at 1.

Consider `O=c1[nH]cnc2c1ncn2[C@@H]1O[C@H](CO)[C@@H](O)[C@H]1O` [INO-1001], for which, in [1], the “Sensitivity Enhancement (change in survival) with Deoxynyboquinone (DNQ)” value turned out to be 10 and the “Sensitivity Enhancement (change in survival) with β-Lapachone” value turned out to be 7.

`CON` [Methoxyamine, methoxyamine]: in data set [4], the “lethality in combination with ß-lapachone” value was “synergistic lethality”. Also, in data set [5], the “optimal concentration in combination with NQO1 bioactivatable drugs” value lay within 6 to 12 mM. Also, in data set [5] (measured by relative survival and ATP loss), the nontoxic concentration was > 100 mM.

Turning to `CC1(C)CCC2=C(O1)c1ccccc1C(=O)C2=O` [β-Lapachone, β-lapachone], the antitumor efficacy result in data set [6] is on record as “significant antitumor efficacy”. In the data set on Mia PaCa-2 cells, the sublethal dose is 2 to 2.5 µM and 3.0 µM and 2.5 µM. The nontoxic dose in the data set on A549 NSCLC cells stood at 3 µM. In addition, the lethal dose in the data set on A549 NSCLC cells (2 hours) is 8 µM. Also, at NQO1, the “superoxide generated per mole of compound” value is ~120 mol.

The record behind these values is patent US10576096B2, “Tumor-selective combination therapy” (priority 2013, dated 2020).
